From patent US20210395327A1, “Growth Hormone-Releasing Hormone Antagonists and Uses Thereof” (United States Government As Represented By The Department …, priority 2019, published 2021)
Non-standard residues stand in square brackets, D forms with d. Residues, ends and D or L forms follow the SMILES beside them. *: point of attachment. Phe(F5) = N[C@@H](Cc1c(F)c(F)c(F)c(F)c1F)C(=O)O; hArg = N=C(N)NCCCC[C@H](N)C(=O)O; 12Ado = NCCCCCCCCCCCC(=O)O; Nle = CCCC[C@H](N)C(=O)O; Orn = NCCC[C@H](N)C(=O)O; Abu = CC[C@H](N)C(=O)O; PhAc = O=C(Cc1ccccc1)*

Assays:
[1] = system: lung cancer HCC827 xenograft; assay: Xenograft tumor growth in nude mice, HCC827; format: in vivo; conditions: Table 4B, Lung Ca HCC827, 7 weeks, 5 μg/day s.c.
Experimental: The peptides' activity was compared with GHRH antagonist MIA-602. All statistical analyzses were performed from comparing GHRA antagonists to non-treated tumor (control).
Peptides and chemicals. GHRH antagonists MIA-602 and AVR-GHRH antagonists (see Table 2 above) were synthesized by solid phase methods and purified by HPLC. The peptides were dissolved in DMSO and further diluted in 10% 1,2-propanediol. The final concentration of peptides was 50 µg/ml in 10% 1,2-propanediol containing 0.1% of DMSO.
(§1) Cell culture. Human cancer cell lines including pancreatic (PANC-1 and CFPAC-1), lung (HCC827 and H460), stomach (NCI-N87), prostate (PC3), brest (MX-1 and HCC-1806), colorectal (HT-29), and ovarian (SK-OV-3 and OVCAR-3) were obtained from the American Type Culture Collection (ATCC) and cultured at 37° C. in a humidified 95% air/5% CO2 atmosphere in the medium recommended by ATCC.
Xenograft models of human cancers in nude mice. Female athymic (NCr nu/nu) nude mice, 5- to 6-weeks-old, obtained from the Envigo labs (Tampa, Fla.), were housed in laminar airflow cabinets under pathogen-free conditions with a 12-h light/12-h dark schedule, and were fed autoclaved standard chow and water. To generate mice with xenografted tumors, tumor xenografts were initiated by subcutaneous (s.c.) injection of 107 human cancer cells into female nude mice. After about 4 weeks the resulting tumors were dissected and collected after removing necrosis tissues. The tumors were then cut into particles with size of 3 mm3 and transplanted s.c. by trocar needle into experimental animals. When tumors grew to the size of 50-60 mm3 (by volume), mice were randomized into groups and treated daily for 4-8 weeks by subcutaneous administration of 5 μg of GHRH antagonists MIA-602 or AVR-compounds (2-10 μg as indicated), or vehicle solutions (0.1% DMSO in 10% 1,2-propanediol) respectively. Tumor sizes were measured weekly.
Statistical analysis. One-way ANOVA followed by Bonferroni comparison were performed. Data are expressed as Mean±SEM. To determine statistical significance between animal groups, two-tailed Student's t-test was conducted. Differences were considered significant when p<0.05.
Results. […] FIG. 1A-N represents in vivo inhibition of tumor growth during the treatment with GHRH antagonist MIA-602 and selected AVR antagonists in nude mice xenografted with various human tumors including pancreatic cancer PANC-1 (FIG. 1A) and CFPAC-1 (FIG. 1I); lung cancer HCC827 (FIGS. 1B, C) and H460 (FIG. 1H); stomach cancer N87 (FIGS. 1D-F); colon cancer HT-29 (FIG. 1G); breast cancer MX-1 and HCC-1806 (FIGS. 1J, K); ovarian cancer SK-OV-3 and OVACAR-3 (FIGS. 1 L, M) and prostate cancer PC3 (FIG. 1N). See also Table 5.

HT-29 colon cancer cells = assay: In vitro cell viability, HT-29; format: cell-based, human; conditions: Table 3B; 5 μM for 72 H; MIA-602 = 1
Experimental: The inhibitory effects of the various synthesized GHRH antagonists were tested in cell proliferation assays in various human cancer cell lines including stomach cancer (KATOIII, N87), colon cancer (HT-29), urothelial cancer (J82, RT4), pancreatic cancer (PANC-1, CFPAC-1), prostatic cancer (PC3), breast cancer (MX-1, HCC1806), ovarian cancer (SK-OV-3, OVCAR-3) and lung cancer (HCC827, H460).
as §1, with “(NCI-N87 and KATOIII), urothelial (J82, RT4), prostatic” for “(NCI-N87), prostate”, “breast” for “brest”, “HCC 1806),” for “HCC-1806),”
In vitro cell viability. Cell viability was analyzed as follows: cancer cells including pancreatic (PANC-1 and CFPAC-1), lung (HCC827 and H460), stomach (NCI-N87 and KATOIII), urothelial (J82, RT4), prostatic (PC3) and breast (MX-1 and HCC 1806), colorectal (HT-29) and ovarian (SK-OV-3 and OVCAR-3) were grown on 96 well plates to ˜60% confluence, the cells were starved for 24 h in culture medium containing 0.5% FBS. Cells were then treated with GHRH antagonists MIA602 AVR compounds at concentrations of 1, 2.5 or 5 μM, or vehicle (0.1% DMSO) in quintuplicates for 72 hours. The medium was replaced every 48 hours. Cell viability was measured using CellTiter 96 aqueous one solution kit (Promega). Inhibitory effects of tested AVR compounds in comparison to that of MIA602 are presented as inhibitory potency.
Inhibitory effects of selected AVR compounds in comparison to that of MIA602 are presented as inhibitory potency (e.g., percentage of inhibition). […] The cell lines tested including lung cancer HCC827 (FIG. 2A), pancreatic cancer CFPAC-1 (FIG. 2B), stomach cancer N87 (FIG. 2C), colon cancer HT-29 (FIG. 2D), breast cancers MX-1 and HCC1806 (FIGS. 2 E, F). Based on the results of cell proliferation assay after cancer cells were treated with antagonist at concentration of 5 μM for 72H, the relative inhibitory potency of AVR antagonists in comparison to MIA-602 is summarized in Table 3 A and B. Over 60 AVR compounds were tested in 12 cancer cell lines.
Based on the results of cell proliferation assay after cancer cells were treated with antagonist at concentration of 5 µM for 72H, * at concentration of 2 µM for 72 H.

SMILES: CCCC[C@H](NC(=O)[C@@H](NC(=O)[C@H](CC(=O)O)NC(=O)[C@H](CCC(N)=O)NC(=O)[C@H](CC(C)C)NC(=O)[C@H](CC(C)C)NC(=O)[C@H](CCCN)NC(=O)[C@H](Cc1c[nH]cn1)NC(=O)[C@H](C)NC(=O)[C@H](CO)NC(=O)[C@H](CC(C)C)NC(=O)[C@H](CCC(N)=O)NC(=O)[C@H](CC)NC(=O)[C@H](CC(C)C)NC(=O)[C@@H](NC(=O)[C@H](CCCN)NC(=O)[C@H](Cc1c[nH]cn1)NC(=O)[C@H](Cc1ccc(OC)cc1)NC(=O)[C@H](CCCCNC(=N)N)NC(=O)[C@H](C)NC(=O)[C@@H](NC(=O)[C@H](Cc1c(F)c(F)c(F)c(F)c1F)NC(=O)[C@@H](NC(=O)[C@H](C)NC(=O)[C@H](CC(=O)O)NC(=O)[C@@H](CCCNC(=N)N)NC(=O)[C@H](Cc1ccc(O)cc1)NC(=O)CCCCCCCCCCCNC(=O)Cc1ccccc1)[C@@H](C)CC)[C@@H](C)O)C(C)C)[C@@H](C)CC)C(=O)N[C@H](CCCNC(=N)N)C(=O)N[C@@H](CCCCNC(=N)N)C(N)=O [MIA-602, PhAC-Ada, Tyr D-Arg, Asp, Ala, Ile, 5FPhe, Thr, Ala, Har, Tyr(Me), His, Orn, Val, Leu, Abu, Gin, Leu, Ser, Ala, His, Om, Leu, Leu, Gin, Asp, Ile; Nle, D-Arg, Har NH2, reference compound] ({PhAc-12Ado}-Y[dR]DAI[Phe(F5)]TA[hArg]Y(Me)H[Orn]VL[Abu]QLSAH[Orn]LLQDI[Nle][dR][hArg]-NH2)
- Tumor Growth % [1]: 662.2%
- % Inhibition ([1]; vs control): 49.5%
- In vitro relative inhibitory potency in comparison to MIA-602, HT-29 (HT-29 colon cancer cells): 1
